According to patent US10765675B2, “Compositions and methods for treating Ewing family tumors” (priority 2015, dated 2020):
Counter-ions that a name gives are not always drawn.

Assays:
MB231-Bo cancer cells = settings: same doses as tested on TC-32 and TC-71 cells
Method: (§2) The TC-32 cell line was derived from a newly diagnosed PNET patient and the TC-71 cell line was derived from a tumor recurrent after chemotherapy in a Ewing's sarcoma patient.
(§3) The cells were cultured in DMEM media supplemented with 10% FBS, 1% L-glutamate, 1% sodium pyruvate, 1% penicillin/streptomycin, and 1% non-essential amino acids in a humidified atmosphere at 37° C. and in 5% CO2. The ratio of cells to well surface and media volume was kept constant in all experiments.
(§4) Treated cells were imaged with an IVIS200 system (Xenogen Corporation, Alameda, Calif.) using the bioluminescent imaging function. An average of three kinetic bioluminescent acquisitions was obtained within 5 min Regions of interest were automatically drawn over wells and quantified with Living Image Software version 2.50.1. Data was analyzed based on total photon flux emission minus the background photon flux of blank wells. Three separate experiments were performed, with six replicate wells for each data point.

[1] = metformin 500-1000 mg/day; cited from earlier work
TC-32 cells = assay: cells; settings: Homo sapiens, TC-32, 24 h, read-out: EC50 (concentration of drug that inhibits growth of the tumor cells by 50% as compared to vehicle-treated control)
Text: (§1) The combination index (CI) accounts for the dose response of single drugs to determine the combination effect. […] Enzyme Regul. 22:27-55. The equation for calculating CI is as follows: […]

TC-71 cells = assay: cells; settings: Homo sapiens, TC-71, 24 h, read-out: EC50 (concentration of drug that inhibits growth of the tumor cells by 50% as compared to vehicle-treated control)
Text: as §1

3T3 fibroblast cells = settings: same doses as tested on TC-32 and TC-71 cells
Method: as §2, §3, §4

sarcomas = settings: cited from earlier work
[2] = tested on: DNA damage and DNA repair pathway genes in TC-71 cells; settings: 12 h
Text: (§5) Housekeeping genes were included on the array to normalize RNA amounts.

[3] = tested on: DNA damage and DNA repair pathway genes in TC-32 cells; settings: 12 h
Text: as §5

SMILES: CN(C)C(=N)N=C(N)N [metformin, Metformin hydrochloride]
- Cytotoxicity (MB231-Bo cancer cells): did not show any cytotoxicity
- Plasma levels [1]: about 1.1 mg/L
- Plasma levels, molar equivalent [1]: 7 µM
- EC50 (TC-32 cells): 11.8 mM
- EC50 (TC-71 cells): 11.6 mM
- Cytotoxicity (3T3 fibroblast cells): did not show any cytotoxicity

SMILES: COc1cccc2c1C(=O)c1c(O)c3c(c(O)c1C2=O)C[C@@](O)(C(=O)CO)C[C@@H]3O[C@H]1C[C@H](N)[C@H](O)[C@H](C)O1 [doxorubicin]
- Side-effects limiting clinical utility (sarcomas; clinical use): irreversible cardiac toxicity
- Share of sarcomas that respond to the drug (sarcomas; standard systemic therapy): 20%

SMILES: Cc1ccc(NC(=O)c2ccc(CN3CCN(C)CC3)cc2)cc1Nc1nccc(-c2cccnc2)n1 [imatinib, imatinib mesylate]
- Cytotoxicity (MB231-Bo cancer cells): did not show any cytotoxicity
- Expression of 11 DNA repair genes (MMS19, LIG4, B2M, RFC1, PARP2, BRCA2, TREX1, XPC, RAD23A, MUTYH, APEX1) [2]: significantly up-regulated
- Cytotoxicity (3T3 fibroblast cells): did not show any cytotoxicity
- Expression of 9 DNA repair genes (PRKDC, LIG4, MPG, ACTB, NEIL2, MLH1, RPA3, ATXN3, ERCC5) [3]: significantly up-regulated
